This is an account of results in US20240254118A1, “PRMT5 INHIBITORS AND USES THEREOF” (Gilead Sciences, Inc., priority 2022, published 2024).

For assay [1], the system named is HCT116 MTAP-deleted cells. As to the kind of experiment: Cell viability assay (CellTiter-Glo, 7 days), HCT116 MTAP-deleted. The settings on record: Homo sapiens, HCT-116, 168 h. On the technique in general: ATP-based viability assays read luminescence as a measure of living cells.
In assay [2] the test system is SDMA signal (PRMT5 inhibition) in HCT116 MTAP-deleted cells. Nature of the assay: Symmetric di-methyl arginine image-based high content screen assay (SDMA assay), HCT116 MTAP-deleted. In kind it is cell-based. The following applies: SDMA assay; for EC50: Homo sapiens, HCT-116, 72 h, 3 days of treatment, cell line not given, taken as HCT116 MTAP-deleted, read-out: EC50 (SDMA assay); for EC50 selectivity (SDMA assay): taken as HCT116 WT versus MTAP-deleted. As to the method:
Symmetric di-methyl arginine image-based high content screen assay (SDMA assay) was performed in HCT116 WT and HCT116 MTAP-deleted cell lines to measure Symmetric Di-methyl Arginine (SDMA) signal reduction after selective PRMT5 inhibition in the MTAP-deleted cells.
Briefly, the same compound plates were generated as mentioned in the previous section of Cell viability assay on Day −1.
On Day 3, the cells were fixed by adding 45 μl of 8% neutralized formalin solution to each well using EL460 liquid dispenser 5 μl cassette and the cells were incubated for 30 minutes at room temperature. The formalin solution was washed off with […] phosphate buffered saline (dPBS), the 0.1% Triton X-100 solution in dPBS was used to permeabilize the cells for 15 minutes at room temperature. The triton solution was aspirated, 50 μl of Odyssey Blocking buffer+0.05% Tween20 was added and the plate was incubated at room temperature for 30 minutes.
The blocking solution was removed, a 20 μl of SDMA antibody (Cell Signaling Technology, Cat no. 13222) diluted 1:500 in Odyssey Blocking buffer+0.05% Tween20 was added and the plate was incubated at 4° C. overnight. Next day, the primary SDME antibody solution was washed from each well three times with 0.05% Tween20 in dPBS (PBST).
A 30 μl of the secondary antibody, a Goat anti-Rabbit Alexa Fluor Plus 488 (Invitrogen, Cat no. PIA32731) was diluted 1:500 in Odyssey Blocking buffer+0.05% Tween20 and the plate was incubated for 1.5 hours in dark at room temperature. The secondary antibody solution was removed, 30 μl of 5 mg/ml DAPI solution diluted 1:2000 in dPBS was added and the plate was incubated for 30 minutes in dark at room temperature. The DAPI solution was aspirated and the wells were washed six times with dPBS.
The SDMA signal and DAPI signal per cell were counted using a Cellomics CX7 LZR instrument reading under 488 and 405 nm laser, respectively. The SDMA signal was quantified by mean average intensity per cell from Alexa Fluor Plus 488 after the cell was defined with DAPI.

The term CC50 denotes the concentration giving 50% cytotoxicity. Usually EC50 stands for the concentration that produces a half-maximal response.

Turning to `COc1nc(C(F)(F)F)ccc1CN(C(=O)c1ccc2nc(N)c3cnn(C)c3c2c1)N(C)C(C)=O` [Example 18, N′-acetyl-4-amino-N-[[2-methoxy-6-(trifluoromethyl)-3-pyridyl]methyl]-N′, 1-dimethyl-pyrazolo[4,3-c]quinoline-8-carbohydrazide], the half-maximal cytotoxic concentration (CC50) in assay [1] is < 100 nM. Besides, in assay [2], the half-maximal effective concentration (EC50) was < 1 nM and the “EC50 selectivity (SDMA assay)” value amounted to 61.

In the case of `COc1cc(C(F)(F)F)ccc1CN(C(=O)c1ccc2nc(N)c3cnn(C)c3c2c1)N(C)C(C)=O` [Example 19, N′-acetyl-4-amino-N-[[2-methoxy-4-(trifluoromethyl)phenyl]methyl]-N′,1-dimethyl-pyrazolo[4,3-c]quinoline-8-carbohydrazide], in assay [1], the cytotoxic concentration (CC50) is < 100 nM. For the same compound, in assay [2], the EC50 is < 1 nM and the “EC50 selectivity (SDMA assay)” value worked out at 93.

Regarding `Cn1ncc2c(N)nc3ccc(C(=O)N(Cc4ccc(C(F)(F)F)cn4)N4CCOCC4)cc3c21` [Example 20, 4-amino-1-methyl-N-morpholino-N-((5-(trifluoromethyl)pyridin-2-yl)methyl)-1H-pyrazolo[4,3-c]quinoline-8-carboxamide], in assay [1], the CC50 was < 100 nM. In assay [2], the EC50 is < 1 nM and the “EC50 selectivity (SDMA assay)” value turned out to be 143.

In the case of `Cn1ncc2c(N)nc3ccc(C(=O)N(Cc4ccc(C(F)(F)F)cn4)N4CCCC(F)(F)C4)cc3c21` [Example 21, 4-amino-N-(3,3-difluoro-1-piperidyl)-1-methyl-N-[[5-(trifluoromethyl)-2-pyridyl]methyl]pyrazolo[4,3-c]quinoline-8-carboxamide], the cytotoxic concentration (CC50) in assay [1] was < 100 nM. Also, in assay [2], the EC50 is < 1 nM and the “EC50 selectivity (SDMA assay)” value was 90.

Consider `Cn1ncc2c(N)nc3ccc(C(=O)N(Cc4ccc(C(F)(F)F)cn4)N4CCC(F)(F)CC4)cc3c21` [Example 22, 4-amino-N-(4,4-difluoro-1-piperidyl)-1-methyl-N-[[5-(trifluoromethyl)-2-pyridyl]methyl]pyrazolo[4,3-c]quinoline-8-carboxamide], for which the CC50 in assay [1] is < 100 nM. In assay [2], the concentration giving a half-maximal response (EC50) fell in the range of 1 to 5 nM and the “EC50 selectivity (SDMA assay)” value was 260.

Regarding `CN(c1ncccn1)N(Cc1ccc(C(F)(F)F)cn1)C(=O)c1ccc2nc(N)c3cnn(C)c3c2c1` [Example 23, 4-amino-N′, 1-dimethyl-N′-(pyrimidin-2-yl)-N-((5-(trifluoromethyl)pyridin-2-yl)methyl)-1H-pyrazolo[4,3-c]quinoline-8-carbohydrazide], the CC50 in assay [1] was < 100 nM. In assay [2], the EC50 is < 1 nM and the “EC50 selectivity (SDMA assay)” value is recorded as 18.

As for `CN(c1ncccn1)N(Cc1ccc(C(F)(F)F)cn1)C(=O)c1ccc2nc(N)c3ccccc3c2c1` [Example 24, 6-amino-N′-methyl-N′-(pyrimidin-2-yl)-N-((5-(trifluoromethyl)pyridin-2-yl)methyl)phenanthridine-2-carbohydrazide], in assay [1], the CC50 was < 100 nM. Besides, in assay [2], the EC50 is < 1 nM and the “EC50 selectivity (SDMA assay)” value was found to be 87.

As to `CN(c1ccccn1)N(Cc1ccc(C(F)(F)F)cn1)C(=O)c1ccc2nc(N)c3cnn(C)c3c2c1` [Example 25, 4-amino-N′, 1-dimethyl-N′-(2-pyridyl)-N-[[5-(trifluoromethyl)-2-pyridyl]methyl]pyrazolo[4,3-c]quinoline-8-carbohydrazide], in assay [1], the CC50 is < 100 nM. Also, in assay [2], the EC50 was 1 to 5 nM and the “EC50 selectivity (SDMA assay)” value is recorded as 26.

For the compound `Cn1ncc2c(N)nc3ccc(C(=O)N(Cc4ccc(C(F)(F)F)cn4)N4CCCC4=O)cc3c21` [Example 26, 4-amino-1-methyl-N-(2-oxopyrrolidin-1-yl)-N-[[5-(trifluoromethyl)-2-pyridyl]methyl]pyrazolo[4,3-c]quinoline-8-carboxamide], in assay [1], the CC50 is < 100 nM. Moreover, in assay [2], the concentration for a half-maximal effect (EC50) fell in the range of 1 to 5 nM and the “EC50 selectivity (SDMA assay)” value came out at 85.

Take `Cn1ncc2c(N)nc3ccc(C(=O)N(Cc4ccc(C(F)(F)F)cn4)N4CCCC4)cc3c21` [Example 27, 4-amino-1-methyl-N-pyrrolidin-1-yl-N-[[5-(trifluoromethyl)-2-pyridyl]methyl]pyrazolo[4,3-c]quinoline-8-carboxamide]: the CC50 in assay [1] is < 100 nM. Further, in assay [2], the half-maximal effective concentration (EC50) is < 1 nM and the “EC50 selectivity (SDMA assay)” value was determined as 94.

Turning to `Cn1ncc2c(N)nc3ccc(C(=O)N(Cc4ccc(C(F)(F)F)cn4)N4CCCCC4)cc3c21` [Example 28, 4-amino-1-methyl-N-(1-piperidyl)-N-[[5-(trifluoromethyl)-2-pyridyl]methyl]pyrazolo[4,3-c]quinoline-8-carboxamide], the CC50 in assay [1] was < 100 nM. In addition, in assay [2], the 50% effective concentration (EC50) is < 1 nM and the “EC50 selectivity (SDMA assay)” value is 134.

Take `Cn1ncc2c(N)nc3ccc(C(=O)N(Cc4ccc(C(F)(F)F)cn4)N4CCCCC4=O)cc3c21` [Example 29, 4-amino-1-methyl-N-(2-oxo-1-piperidyl)-N-[[5-(trifluoromethyl)-2-pyridyl]methyl]pyrazolo[4,3-c]quinoline-8-carboxamide]: the cytotoxic concentration (CC50) in assay [1] was < 100 nM. In assay [2], the concentration giving a half-maximal response (EC50) is < 1 nM and the “EC50 selectivity (SDMA assay)” value was found to be 43.

Consider `Nc1nc2ccc(C(=O)N(Cc3ccc(C(F)(F)F)cn3)N3CCCCC3=O)cc2c2c1COC2` [Example 30, 4-amino-N-(2-oxo-1-piperidyl)-N-[[5-(trifluoromethyl)-2-pyridyl]methyl]-1,3-dihydrofuro[3,4-c]quinoline-8-carboxamide], for which, in assay [1], the 50% cytotoxic concentration (CC50) was < 100 nM. In addition, in assay [2], the concentration for a half-maximal effect (EC50) is < 1 nM and the “EC50 selectivity (SDMA assay)” value turned out to be 101.

On to `Cn1ncc2c(N)nc3ccc(C(=O)N(Cc4ccc(C(F)(F)F)cn4)N4CCC(C)(C)CC4=O)cc3c21` [Example 31, 4-amino-N-(4,4-dimethyl-2-oxo-1-piperidyl)-1-methyl-N-[[5-(trifluoromethyl)-2-pyridyl]methyl]pyrazolo[4,3-c]quinoline-8-carboxamide], for which the CC50 in assay [1] was < 100 nM. Moreover, in assay [2], the EC50 was 1 to 5 nM and the “EC50 selectivity (SDMA assay)” value amounted to 323.

On to `CN1CCN(N(Cc2ccc(C(F)(F)F)cn2)C(=O)c2ccc3nc(N)c4cnn(C)c4c3c2)C1=O` [Example 32, 4-amino-1-methyl-N-(3-methyl-2-oxo-imidazolidin-1-yl)-N-[[5-(trifluoromethyl)-2-pyridyl]methyl]pyrazolo[4,3-c]quinoline-8-carboxamide], for which the CC50 in assay [1] is < 100 nM. Further, in assay [2], the 50% effective concentration (EC50) is < 1 nM and the “EC50 selectivity (SDMA assay)” value is 74.

As for `CC(=O)N(C)N(Cc1ccc(C(F)(F)F)cn1)C(=O)c1ccc2nc(N)c3cnn(C)c3c2c1` [Example 33, N′-acetyl-4-amino-N′, 1-dimethyl-N-[[5-(trifluoromethyl)-2-pyridyl]methyl]pyrazolo[4,3-c]quinoline-8-carbohydrazide], in assay [1], the 50% cytotoxic concentration (CC50) is < 100 nM. In assay [2], the EC50 is < 1 nM and the “EC50 selectivity (SDMA assay)” value is 73.

As to `CC(=O)N(C)N(Cc1ccc(C(F)(F)F)cn1)C(=O)c1cc2c(cc1F)nc(N)c1cnn(C)c12` [Example 34, N′-acetyl-4-amino-7-fluoro-N′, 1-dimethyl-N-[[5-(trifluoromethyl)-2-pyridyl]methyl]pyrazolo[4,3-c]quinoline-8-carbohydrazide], in assay [1], the CC50 was < 100 nM. Besides, in assay [2], the EC50 lay in the range of 1 to 5 nM and the “EC50 selectivity (SDMA assay)” value was determined as 8.

Consider `Cn1ncc2c(N)nc3ccc(C(=O)N(Cc4ccc(C(F)(F)F)cn4)N4Cc5ccccc5C4=O)cc3c21` [Example 35, 4-amino-1-methyl-N-(1-oxoisoindolin-2-yl)-N-[[5-(trifluoromethyl)-2-pyridyl]methyl]pyrazolo[4,3-c]quinoline-8-carboxamide], for which the CC50 in assay [1] is < 100 nM. Also, in assay [2], the EC50 was < 1 nM and the “EC50 selectivity (SDMA assay)” value was 103.

Regarding `Cn1ncc2c(N)nc3ccc(C(=O)N(Cc4ccc(C(F)(F)F)cn4)N4CCc5ccccc5C4=O)cc3c21` [Example 36, 4-amino-1-methyl-N-(1-oxo-3,4-dihydroisoquinolin-2-yl)-N-[[5-(trifluoromethyl)-2-pyridyl]methyl]pyrazolo[4,3-c]quinoline-8-carboxamide], in assay [1], the CC50 is < 100 nM. Further, in assay [2], the concentration for a half-maximal effect (EC50) is < 1 nM and the “EC50 selectivity (SDMA assay)” value is on record as 30.

`CN(C(=O)c1ccccc1)N(Cc1ccc(C(F)(F)F)cn1)C(=O)c1ccc2nc(N)c3cnn(C)c3c2c1` [Example 37, 4-amino-N′-benzoyl-N′, 1-dimethyl-N-[[5-(trifluoromethyl)-2-pyridyl]methyl]pyrazolo[4,3-c]quinoline-8-carbohydrazide] displayed a CC50 in assay [1] of 100 to 1000 nM. In assay [2], the half-maximal effective concentration (EC50) lay within 1 to 5 nM and the “EC50 selectivity (SDMA assay)” value was 141.
